Laboratory results from the NIST ThermoML archive (doi:10.1021/je100581m).
Several values for one entry are separate records, joined by “and”; a condition that tells them apart may be missing. Equal values may be shown once. ± gives the expanded uncertainty stated by the source.

Legend:
[1] = Liquid, Vibrating tube method
[2] = xn = mol fraction of the nth substance listed; conditions: Liquid, Vibrating tube method, x1 = 1

SMILES	mass density ([1]; 283.15 K, 100 kPa)	mass density ([1]; 283.15 K, 5000 kPa)	mass density ([1]; 283.15 K, 10000 kPa)	mass density ([1]; 283.15 K, 15000 kPa)	mass density ([1]; 283.15 K, 20000 kPa)	mass density ([1]; 298.15 K, 100 kPa)	mass density ([1]; 298.15 K, 5000 kPa)	mass density ([1]; 298.15 K, 10000 kPa)	mass density ([1]; 298.15 K, 15000 kPa)	mass density ([1]; 298.15 K, 20000 kPa)	mass density ([1]; 313.15 K, 100 kPa)	mass density ([1]; 313.15 K, 5000 kPa)	mass density ([1]; 313.15 K, 10000 kPa)	mass density ([1]; 313.15 K, 15000 kPa)	mass density ([1]; 313.15 K, 20000 kPa)	mass density ([1]; 328.15 K, 100 kPa)	mass density ([1]; 328.15 K, 5000 kPa)	mass density ([1]; 328.15 K, 10000 kPa)	mass density ([1]; 328.15 K, 15000 kPa)	mass density ([1]; 328.15 K, 20000 kPa)	also measured
C=CC(C)(O)CCC=C(C)C (configuration not stated) [3,7-dimethyl-1,6-octadien-3-ol]	869.2 ± 1.1 kg/m3 and 869.5 ± 1.1 kg/m3	872.3 ± 1.1 kg/m3 and 872.6 ± 1.1 kg/m3	875.2 ± 1.2 kg/m3 and 875.7 ± 1.2 kg/m3	878.2 ± 1.2 kg/m3 and 878.7 ± 1.2 kg/m3	881 ± 1.2 kg/m3 and 881.5 ± 1.2 kg/m3	856.9 ± 1.1 kg/m3 and 857.3 ± 1.1 kg/m3	860.1 ± 1.1 kg/m3 and 860.6 ± 1.1 kg/m3	863.5 ± 1.2 kg/m3 and 863.9 ± 1.2 kg/m3	866.6 ± 1.2 kg/m3 and 867 ± 1.2 kg/m3	869.6 ± 1.2 kg/m3 and 870 ± 1.2 kg/m3	844.1 ± 1.1 kg/m3 and 844.5 ± 1.1 kg/m3	847.8 ± 1.1 kg/m3 and 848.2 ± 1.1 kg/m3	851.3 ± 1.1 kg/m3 and 851.6 ± 1.1 kg/m3	854.8 ± 1.2 kg/m3 and 855 ± 1.2 kg/m3	858.1 ± 1.2 kg/m3 and 858.4 ± 1.2 kg/m3	831.3 ± 1.1 kg/m3 and 831.7 ± 1.1 kg/m3	835.2 ± 1.1 kg/m3 and 835.6 ± 1.1 kg/m3	839.1 ± 1.1 kg/m3 and 839.5 ± 1.1 kg/m3	842.7 ± 1.2 kg/m3 and 843.1 ± 1.2 kg/m3	846.3 ± 1.2 kg/m3 and 846.7 ± 1.2 kg/m3	mass density ([1]; 283.18 K, 15000 kPa): 878.7 ± 1.2 kg/m3; mass density ([1]; 328.18 K, 10000 kPa): 839.5 ± 1.1 kg/m3
CCO [ethanol]	797.7 ± 1 kg/m3	801.8 ± 1 kg/m3	805.6 ± 1 kg/m3	809.6 ± 1 kg/m3	813.1 ± 1 kg/m3	784.9 ± 1 kg/m3	789.3 ± 1 kg/m3	793.6 ± 1 kg/m3	797.7 ± 1 kg/m3	801.6 ± 1 kg/m3	771.9 ± 1 kg/m3	776.8 ± 1 kg/m3	781.3 ± 1 kg/m3	785.7 ± 1 kg/m3	789.9 ± 1 kg/m3	758.6 ± 1 kg/m3	763.8 ± 1 kg/m3	768.9 ± 1 kg/m3	773.6 ± 1 kg/m3	778.1 ± 1 kg/m3	
CCO [ethanol] + C=CC(C)(O)CCC=C(C)C																					mass density ([2]; 283.15 K, 100 kPa): 797.7 ± 1 kg/m3; mass density ([2]; 283.15 K, 5000 kPa): 801.8 ± 1 kg/m3; mass density ([2]; 283.15 K, 10000 kPa): 805.6 ± 1 kg/m3; mass density ([2]; 283.15 K, 15000 kPa): 809.6 ± 1 kg/m3; mass density ([2]; 283.15 K, 20000 kPa): 813.1 ± 1 kg/m3; mass density ([2]; 298.15 K, 100 kPa): 784.9 ± 1 kg/m3; mass density ([2]; 298.15 K, 5000 kPa): 789.3 ± 1 kg/m3; mass density ([2]; 298.15 K, 10000 kPa): 793.6 ± 1 kg/m3; mass density ([2]; 298.15 K, 15000 kPa): 797.7 ± 1 kg/m3; mass density ([2]; 298.15 K, 20000 kPa): 801.6 ± 1 kg/m3; mass density ([2]; 313.15 K, 100 kPa): 771.9 ± 1 kg/m3; mass density ([2]; 313.15 K, 5000 kPa): 776.8 ± 1 kg/m3; mass density ([2]; 313.15 K, 10000 kPa): 781.3 ± 1 kg/m3; mass density ([2]; 313.15 K, 15000 kPa): 785.7 ± 1 kg/m3; mass density ([2]; 313.15 K, 20000 kPa): 789.9 ± 1 kg/m3; mass density ([2]; 328.15 K, 100 kPa): 758.6 ± 1 kg/m3; mass density ([2]; 328.15 K, 5000 kPa): 763.8 ± 1 kg/m3; mass density ([2]; 328.15 K, 10000 kPa): 768.9 ± 1 kg/m3; mass density ([2]; 328.15 K, 15000 kPa): 773.6 ± 1 kg/m3; mass density ([2]; 328.15 K, 20000 kPa): 778.1 ± 1 kg/m3
CCCO [propan-1-ol]	810.9 ± 1 kg/m3	814.7 ± 1 kg/m3	818.1 ± 1 kg/m3	821.7 ± 1 kg/m3	824.9 ± 1 kg/m3	799 ± 1 kg/m3	803 ± 1 kg/m3	806.9 ± 1 kg/m3	810.6 ± 1 kg/m3	814.1 ± 1 kg/m3	786.8 ± 1 kg/m3	791.2 ± 1 kg/m3	795.3 ± 1 kg/m3	799.3 ± 1 kg/m3	803.1 ± 1 kg/m3	774.5 ± 1 kg/m3	779.1 ± 1 kg/m3	783.7 ± 1 kg/m3	787.8 ± 1 kg/m3	791.9 ± 1 kg/m3	
CCCO [propan-1-ol] + C=CC(C)(O)CCC=C(C)C																					mass density ([2]; 283.15 K, 100 kPa): 810.9 ± 1 kg/m3; mass density ([2]; 283.15 K, 5000 kPa): 814.7 ± 1 kg/m3; mass density ([2]; 283.15 K, 10000 kPa): 818.1 ± 1 kg/m3; mass density ([2]; 283.15 K, 15000 kPa): 821.7 ± 1 kg/m3; mass density ([2]; 283.15 K, 20000 kPa): 824.9 ± 1 kg/m3; mass density ([2]; 298.15 K, 100 kPa): 799 ± 1 kg/m3; mass density ([2]; 298.15 K, 5000 kPa): 803 ± 1 kg/m3; mass density ([2]; 298.15 K, 10000 kPa): 806.9 ± 1 kg/m3; mass density ([2]; 298.15 K, 15000 kPa): 810.6 ± 1 kg/m3; mass density ([2]; 298.15 K, 20000 kPa): 814.1 ± 1 kg/m3; mass density ([2]; 313.15 K, 100 kPa): 786.8 ± 1 kg/m3; mass density ([2]; 313.15 K, 5000 kPa): 791.2 ± 1 kg/m3; mass density ([2]; 313.15 K, 10000 kPa): 795.3 ± 1 kg/m3; mass density ([2]; 313.15 K, 15000 kPa): 799.3 ± 1 kg/m3; mass density ([2]; 313.15 K, 20000 kPa): 803.1 ± 1 kg/m3; mass density ([2]; 328.15 K, 100 kPa): 774.5 ± 1 kg/m3; mass density ([2]; 328.15 K, 5000 kPa): 779.1 ± 1 kg/m3; mass density ([2]; 328.15 K, 10000 kPa): 783.7 ± 1 kg/m3; mass density ([2]; 328.15 K, 15000 kPa): 787.8 ± 1 kg/m3; mass density ([2]; 328.15 K, 20000 kPa): 791.9 ± 1 kg/m3
CC(C)O [propan-2-ol]	793.7 ± 1 kg/m3	797.5 ± 1 kg/m3	801.3 ± 1 kg/m3		808.9 ± 1 kg/m3	781.2 ± 1 kg/m3	785.5 ± 1 kg/m3	789.7 ± 1 kg/m3	793.8 ± 1 kg/m3	797.6 ± 1 kg/m3	768.1 ± 1 kg/m3	773 ± 1 kg/m3	777.5 ± 1 kg/m3	781.9 ± 1 kg/m3	786.1 ± 1 kg/m3	754.4 ± 1 kg/m3	759.6 ± 1 kg/m3		769.5 ± 1 kg/m3	774 ± 1 kg/m3	mass density ([1]; 283.18 K, 15000 kPa): 805.2 ± 1 kg/m3; mass density ([1]; 328.18 K, 10000 kPa): 764.8 ± 1 kg/m3
CC(C)O [propan-2-ol] + C=CC(C)(O)CCC=C(C)C																					mass density ([2]; 283.15 K, 100 kPa): 793.7 ± 1 kg/m3; mass density ([2]; 283.15 K, 5000 kPa): 797.5 ± 1 kg/m3; mass density ([2]; 283.15 K, 10000 kPa): 801.3 ± 1 kg/m3; mass density ([2]; 283.15 K, 20000 kPa): 808.9 ± 1 kg/m3; mass density ([2]; 283.18 K, 15000 kPa): 805.2 ± 1 kg/m3; mass density ([2]; 298.15 K, 100 kPa): 781.2 ± 1 kg/m3; mass density ([2]; 298.15 K, 5000 kPa): 785.5 ± 1 kg/m3; mass density ([2]; 298.15 K, 10000 kPa): 789.7 ± 1 kg/m3; mass density ([2]; 298.15 K, 15000 kPa): 793.8 ± 1 kg/m3; mass density ([2]; 298.15 K, 20000 kPa): 797.6 ± 1 kg/m3; mass density ([2]; 313.15 K, 100 kPa): 768.1 ± 1 kg/m3; mass density ([2]; 313.15 K, 5000 kPa): 773 ± 1 kg/m3; mass density ([2]; 313.15 K, 10000 kPa): 777.5 ± 1 kg/m3; mass density ([2]; 313.15 K, 15000 kPa): 781.9 ± 1 kg/m3; mass density ([2]; 313.15 K, 20000 kPa): 786.1 ± 1 kg/m3; mass density ([2]; 328.15 K, 100 kPa): 754.4 ± 1 kg/m3; mass density ([2]; 328.15 K, 5000 kPa): 759.6 ± 1 kg/m3; mass density ([2]; 328.15 K, 15000 kPa): 769.5 ± 1 kg/m3; mass density ([2]; 328.15 K, 20000 kPa): 774 ± 1 kg/m3; mass density ([2]; 328.18 K, 10000 kPa): 764.8 ± 1 kg/m3
